Experimental findings from US8822471B2, “Compounds, pharmaceutical compositions and uses thereof” (Boehringer Ingelheim International GmbH, priority 2011, dated 2014) are described below.

What is called EC50 is the midpoint of the concentration-response curve. A high value points to a less potent agent.

This experiment addresses T1, human GPR119 (Homo sapiens, UniProt Q8TDV5).
T1 construct: expression vector for human GPR119 cDNA (Acc. No. NP_848566); expressed in transfected cells
T1 sequence (Q8TDV5 1-335): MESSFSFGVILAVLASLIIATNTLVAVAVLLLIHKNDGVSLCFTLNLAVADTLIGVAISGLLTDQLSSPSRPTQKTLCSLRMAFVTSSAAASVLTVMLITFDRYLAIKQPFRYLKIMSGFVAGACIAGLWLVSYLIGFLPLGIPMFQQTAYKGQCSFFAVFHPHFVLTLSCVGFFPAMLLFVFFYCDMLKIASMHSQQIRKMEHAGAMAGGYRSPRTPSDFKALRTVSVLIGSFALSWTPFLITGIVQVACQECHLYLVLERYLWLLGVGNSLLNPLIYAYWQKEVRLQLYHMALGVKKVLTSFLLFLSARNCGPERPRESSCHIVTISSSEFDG
Description: AlphaScreen cAMP assay in MIN6 cells stably transfected with human GPR119. It is filed as cell-based. The settings on record: Min-6/hGPR119 cells, AlphaScreen cAMP Assay Kit, 45 minutes incubation at room temperature. The method, then:
The compounds of formula I according to the invention modulate the activity of the G-protein-coupled receptor GPR119. The effect of the compounds on the activation of GPR119 and on the stimulation of intracellular cAMP concentration is determined using the AlphaScreen cAMP Assay Kit (Cat. No. #6760625R) made by PerkinElmer.
MIN6 cells [Miyazaki J et al. Endocrinology. 1990 July; 127(1):126-32] are stably transfected with an expression vector for human GPR119 cDNA (Acc. No. NP_848566). Min-6/hGPR119 cells are cultured in DMEM, 10% FBS, 50 μM β-mercaptoethanol, 0.3 mg/mL Geniticin, 2 mM GlutaMAX at 37° C. 5% CO2. For the assay, the cells are seeded in Optiplates (white, 384-well, 160 W-barcoded, TC, sterile with lid, Cat. No. #6007688 (Perkin Elmer); 10000 cells/well; 50 μl). The plates covered with lids are then incubated for 24 hours at 37° C./5% CO2. After the medium is aspirated from the wells completely, 10 μl of the test compound are added, the compounds are diluted using stimulating buffer (140 mM NaCl, 3.6 mM KCl, 0.5 mM NaH2PO4, 0.5 mM MgSO4, 1.5 mM CaCl2, 10 mM Hepes, 5 mM NaHCO3; pH 7.4. 0.5 mM IBMX and 0.1% BSA, the final DMSO concentration is 1%). After 45 minutes incubation at room temperature (approx. 20° C.), the cAMP concentrations are determined using the AlphaScreen cAMP Assay Kit (Cat. No. #6760625R from PerkinElmer).
Background: In Alpha technology, singlet oxygen from a donor bead excites a nearby acceptor bead.

Consider `O=C(c1ccc(-c2cnco2)cc1)N(C1CC1)C1CCN(c2nc(C3CCOCC3)no2)CC1` [Example 56, N-Cyclopropyl-4-oxazol-5-yl-N-{1-[3-(tetrahydro-pyran-4-yl)-[1,2,4]oxadiazol-5-yl]-piperidin-4-yl}-benzamide], for which a half-maximal response (EC50) required 159 nM. This counts as sub-micromolar.
The same measure for `C=CCCc1noc(N2CCC(N(C(=O)c3ccc(-c4cnco4)cc3)C3CC3)CC2)n1` [Example 57, N-[1-(3-But-3-enyl-[1,2,4]oxadiazol-5-yl)-piperidin-4-yl]-N-cyclopropyl-4-oxazol-5-yl-benzamide]: 22 nM.
The same measure for `CC(C)(CO)c1noc(N2CCC(N(C(=O)c3ccc(-c4cnco4)cc3)C3CC3)CC2)n1` [Example 58, N-Cyclopropyl-N-{1-[3-(2-hydroxy-1,1-dimethyl-ethyl)-[1,2,4]oxadiazol-5-yl]-piperidin-4-yl}-4-oxazol-5-yl-benzamide]: 629 nM; for `CCCc1nc(N2CCC(N(C(=O)c3ccc(-c4cnco4)cc3)C3CC3)CC2)no1` [Example 59, N-Cyclopropyl-4-oxazol-5-yl-N-[1-(5-propyl-[1,2,4]oxadiazol-3-yl)-piperidin-4-yl]-benzamide]: 23 nM.
For `O=C(c1ccc(-c2cnco2)cc1)N(C1CC1)C1CCN(c2nc(CCC(F)(F)F)no2)CC1` [Example 60, N-Cyclopropyl-4-oxazol-5-yl-N-{1-[3-(3,3,3-trifluoro-propyl)-[1,2,4]oxadiazol-5-yl]-piperidin-4-yl}-benzamide] the value was 50 nM.
`Cc1cnc(N2CCC(N(C(=O)c3ccc(-c4cnco4)cc3)C3CC3)CC2)cn1` [Example 61, N-Cyclopropyl-N-[1-(5-methyl-pyrazin-2-yl)-piperidin-4-yl]-4-oxazol-5-yl-benzamide] yielded an EC50 of 52 nM. The EC50 values of the last two molecules are within 1.5-fold of each other.
For `O=C(c1ccc(-c2cnco2)cc1)N(C1CC1)C1CCN(c2nc(CC(F)(F)F)no2)CC1` [Example 62, N-Cyclopropyl-4-oxazol-5-yl-N-{1-[3-(2,2,2-trifluoro-ethyl)-[1,2,4]oxadiazol-5-yl]-piperidin-4-yl}benzamide] the value was 16 nM; for `CCc1cnc(N2CCC(N(C(=O)c3ccc(-c4cnco4)c(F)c3)C3CC3)CC2)nc1` [Example 63, N-Cyclopropyl-N-[1-(5-ethyl-pyrimidin-2-yl)-piperidin-4-yl]-3-fluoro-4-oxazol-5-yl-benzamide], 3 nM.
`CC(C)c1noc(N2CCC(N(C(=O)c3ccc(-c4cnco4)c(F)c3)C3CC3)CC2)n1` [Example 64, N-Cyclopropyl-3-fluoro-N-[1-(3-isopropyl-[1,2,4]oxadiazol-5-yl)-piperidin-4-yl]-4-oxazol-5-yl-benzamide] showed an EC50 of 4 nM. This EC50 and that of the molecule before are within 1.5-fold of each other.
The same measure for `CCCc1noc(N2CCC(N(C(=O)c3ccc(-c4cnco4)c(F)c3)C3CC3)CC2)n1` [Example 65, N-Cyclopropyl-3-fluoro-4-oxazol-5-yl-N-[1-(3-propyl-[1,2,4]oxadiazol-5-yl)-piperidin-4-yl]-benzamide]: 7 nM.
In the case of `Cc1cnc(N2CCC(N(C(=O)c3ccc(-c4cnco4)c(F)c3)C3CC3)CC2)cn1` [Example 66, N-Cyclopropyl-3-fluoro-N-[1-(5-methyl-pyrazin-2-yl)-piperidin-4-yl]-4-oxazol-5-yl-benzamide], the EC50 was found to be 210 nM.
For `CC(C)(C)c1noc(N2CCC(N(C(=O)c3ccc(-c4cnco4)c(F)c3)C3CC3)CC2)n1` [Example 67, N-[1-(3-tert-Butyl-[1,2,4]oxadiazol-5-yl)-piperidin-4-yl]-N-cyclopropyl-3-fluoro-4-oxazol-5-yl-benzamide] the value was 188 nM.
For `CCc1cnc(N2CCC(N(C(=O)c3ccc(-c4cnco4)c(F)c3)C3CC3)CC2)cn1` [Example 68, N-Cyclopropyl-N-[1-(5-ethyl-pyrazin-2-yl)-piperidin-4-yl]-3-fluoro-4-oxazol-5-yl-benzamide] the value was 211 nM.
`CC(C)c1noc(N2CCC(N(C(=O)c3cc(F)c(-c4cnco4)c(F)c3)C3CC3)CC2)n1` [Example 69, N-Cyclopropyl-3,5-difluoro-N-[1-(3-isopropyl-[1,2,4]oxadiazol-5-yl)-piperidin-4-yl]-4-oxazol-5-yl-benzamide] displayed an EC50 of 198 nM.
The same measure for `Cc1cnc(N2CCC(N(C(=O)c3ccc(-c4cnco4)c(F)c3)C3CC3)CC2)nc1` [Example 70, N-Cyclopropyl-3-fluoro-N-[1-(5-methyl-pyrimidin-2-yl)-piperidin-4-yl]-4-oxazol-5-yl-benzamide]: 191 nM.
For `O=C(c1ccc(-c2cnco2)cc1)N(C1CC1)C1CCN(c2ncc(Br)cc2F)CC1` [Example 71, N-(5′-Bromo-3′-fluoro-3,4,5,6-tetrahydro-2H-[1,2′]bipyridinyl-4-yl)-N-cyclopropyl-4-oxazol-5-yl-benzamide] the value was 11 nM; for `O=C(c1ccc(-c2cnco2)cc1)N(C1CC1)C1CCN(c2ccc(C3CC3)nn2)CC1` [Example 72, N-Cyclopropyl-N-[1-(6-cyclopropyl-pyridazin-3-yl)-piperidin-4-yl]-4-oxazol-5-yl-benzamide], 864 nM; for `Cc1cnc(N2CCC(N(C(=O)c3ccc(-c4cnco4)cc3)C3CC3)CC2)c(F)c1` [Example 73, N-Cyclopropyl-N-(3′-fluoro-5′-methyl-3,4,5,6-tetrahydro-2H-[1,2′]bipyridinyl-4-yl)-4-oxazol-5-yl-benzamide], 38 nM.
`O=C(c1ccc(-c2cnco2)cc1)N(C1CC1)C1CCN(c2ncc(C(F)(F)F)cc2F)CC1` [Example 74, N-Cyclopropyl-N-(3′-fluoro-5′-trifluoromethyl-3,4,5,6-tetrahydro-2H-[1,2′]bipyridinyl-4-yl)-4-oxazol-5-yl-benzamide] yielded an EC50 of 8 nM.
The same measure for `CCCOc1cnc(N2CCC(N(C(=O)c3ccc(-c4cnco4)cc3)C3CC3)CC2)nc1` [Example 75, N-Cyclopropyl-4-oxazol-5-yl-N-[1-(5-propoxy-pyrimidin-2-yl)-piperidin-4-yl]-benzamide]: 87 nM; for `CCOc1cnc(N2CCC(N(C(=O)c3ccc(-c4cnco4)cc3)C3CC3)CC2)nc1` [Example 76, N-Cyclopropyl-N-[1-(5-ethoxy-pyrimidin-2-yl)-piperidin-4-yl]-4-oxazol-5-yl-benzamide]: 165 nM.
The same measure for `CC(C)Oc1cnc(N2CCC(N(C(=O)c3ccc(-c4cnco4)cc3)C3CC3)CC2)nc1` [Example 77, N-Cyclopropyl-N-[1-(5-isopropoxy-pyrimidin-2-yl)-piperidin-4-yl]-4-oxazol-5-yl-benzamide]: 115 nM; for `O=C(c1ccc(-c2cnco2)cc1)N(C1CC1)C1CCN(c2cnc(C3CC3)cn2)CC1` [Example 78, N-Cyclopropyl-N-[1-(5-cyclopropyl-pyrazin-2-yl)-piperidin-4-yl]-4-oxazol-5-yl-benzamide]: 43 nM.
For the molecule `O=C(c1ccc(-c2cnco2)cc1)N(C1CC1)C1CCN(c2nnc(-c3ccccc3)s2)CC1` [Example 79, N-Cyclopropyl-4-oxazol-5-yl-N-[1-(5-phenyl-[1,3,4]thiadiazol-2-yl)-piperidin-4-yl]-benzamide], the concentration for a half-maximal effect (EC50) was determined as 75 nM.
The same measure for `O=C(c1ccc(-c2cnco2)cc1)N(C1CC1)C1CCN(c2ccc(Cl)cn2)CC1` [Example 80, N-(5′-Chloro-3,4,5,6-tetrahydro-2H-[1,2′]bipyridinyl-4-yl)-N-cyclopropyl-4-oxazol-5-yl-benzamide]: 179 nM; for `COC(=O)c1cnc(N2CCC(N(C(=O)c3ccc(-c4cnco4)cc3)C3CC3)CC2)cn1` [Example 81, 5-{4-[Cyclopropyl-(4-oxazol-5-yl-benzoyl)-amino]-piperidin-1-yl}-pyrazine-2-carboxylic acid methyl ester]: 498 nM.
For `Cc1cnc(C)c(N2CCC(N(C(=O)c3ccc(-c4cnco4)cc3)C3CC3)CC2)n1` [Example 82, N-Cyclopropyl-N-[1-(3,6-dimethyl-pyrazin-2-yl)-piperidin-4-yl]-4-oxazol-5-yl-benzamide] the value was 116 nM.
For `O=C(c1ccc(-c2cnco2)cc1)N(C1CC1)C1CCN(c2cnc(I)cn2)CC1` [Example 83, N-Cyclopropyl-N-[1-(5-iodo-pyrazin-2-yl)-piperidin-4-yl]-4-oxazol-5-yl-benzamide] the value was 10 nM.
Molecule `COC(=O)c1cnc(N2CCC(N(C(=O)c3ccc(-c4cnco4)cc3)C3CC3)CC2)nc1` [Example 84, 2-{4-[Cyclopropyl-(4-oxazol-5-yl-benzoyl)-amino]-piperidin-1-yl}-pyrimidine-5-carboxylic acid methyl ester] gave an EC50 of 116 nM.
